Literature values in US20220152157A1 (priority 2020, published 2022).
Where two headings read alike, the source gives them in different places.

Columns and labels:
virus [1] = details: ferrets
virus [2] = details: mice
influenza A virus = details: for membrane convergence of virus and host cell: influenza A, model MDCK cells
pulmonary inflammation = details: in vivo
[3] = tested on: Toll-like receptors (TLR)
[4] = tested on: human respiratory viruses; details: combined with ribavirin, experimental animal models
[5] = tested on: human respiratory viruses; details: combined with ribavirin, in vitro

Row | Molecule | viricidal effect (virus [1]) | viricidal effect (virus [2]) | binding affinity for the influenza A virus (influenza A virus) | binding of the influenza A virus to the surrogate host cells (influenza A virus) | membrane convergence of virus and host cell (influenza A virus) | lowering of total inflammatory cell infiltrates (neutrophils and lymphocytes) (pulmonary inflammation) | virus-induced proinflammatory cytokines (pulmonary inflammation) | deactivation of Toll-like receptors (TLR) [3] | antiviral effects of the combination [4] | antiviral effects of the combination [5]
1 | 1-palmitoyl-2-oleoyl-sn-glycero-3-phosphoglycerol [POPG] | viricidal | viricidal | high binding affinity | prevent the binding | inhibited | > 90% | reduced | deactivators of Toll-like receptors |  | 
2 | CCCCC/C=C\C/C=C\C/C=C\C/C=C\CCCC(=O)OC(COC(=O)CCCCCCCCCCCCCCCCC)COP(=O)(O)OC1C(O)C(O)C(O)C(O)C1O (centres unmarked) [PI, phosphatidyl inositol] |  |  | high binding affinity | prevent the binding | inhibited |  | reduced | deactivators of Toll-like receptors |  | 
3 | CC(N)C12CC3CC(CC(C3)C1)C2 (centres unmarked) [Rimantadine] |  |  |  |  |  |  |  |  | increased antiviral effects | increased antiviral effects
4 | NC12CC3CC(CC(C3)C1)C2 [amantadine] |  |  |  |  |  |  |  |  | increased antiviral effects | increased antiviral effects
